Values of other authors, collected in patent US20140018251A1, “Methods for Predicting Response to Anti-Cancer Therapy in Cancer Patients” (Stichting Het Nederlands Kanker Instituut, priority 2010, published 2014).

System: mouse mammary tumors lacking BRCA1

N.N.[Cl][Pt][Cl] [cisplatin]
sensitivity of tumors: extremely sensitive
